Measurements from BindingDB's records for patent US20250019387 (Frontier Medicines, 2025).

Molecular target: GTPase KRas [G12C,C51S,C80L,C118S]/RAF proto-oncogene serine/threonine-protein kinase (Homo sapiens, UniProt P01116, C118S/C51S/C80L/G12C)
Test: Inhibition of KRASG12C and cRAF Binding
Experimental: Compounds were diluted in 100% DMSO and each compound concentration was spotted at 200 nl/well onto low volume, white 384 well plates. […] Plates were incubated for 19-20 hours. A mixture of RBD and the AlphaScreen streptavidin donor and glutathione acceptor beads diluted in 25 mM Hepes, pH 7.4, 150 mM NaCl, 5 mM MgCl2, 0.01% TritonX-100 and 2% DMSO was then added at 10 ul/well and incubated for 60-90 minutes before the samples were read for emission at 570 nm after excitation of the donor beads at 680 nm. All incubations were performed at room temperature. […] IC50s were determined using nonlinear regression fit of [inhibitor]vs. response (4 parameters).

Sequence of GTPase KRas [G12C,C51S,C80L,C118S]/RAF proto-oncogene serine/threonine-protein kinase (P01116 1-169 G12C/C51S/C80L/C118S): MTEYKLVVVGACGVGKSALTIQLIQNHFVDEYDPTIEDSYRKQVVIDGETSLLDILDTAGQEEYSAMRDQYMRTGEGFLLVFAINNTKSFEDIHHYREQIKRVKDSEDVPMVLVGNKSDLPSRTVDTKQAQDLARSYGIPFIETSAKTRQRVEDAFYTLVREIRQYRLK

Work on `C=CC(=O)[C@]12CCN(c3nc(OC[C@@H]4CCCN4C)nc4c3CCN(c3cccc5cccc(Cl)c35)C4)C[C@H]1C2` [US20250019387, Example 44] yielded an IC50 of under 10 nM.
